Laboratory results taken from BigSolDB 2.1.

[NH3+]O.[NH3+]O.[O-]n1nnnc1-c1nnnn1[O-]
solubility (mole fraction)
Conditions | 298.15 K | 303.15 K | 308.15 K | 313.15 K | 318.15 K | 323.15 K | 328.15 K | 333.15 K
in acetic acid | 7.44e-05 | 8.86e-05 | 0.000105 | 0.000125 | 0.000146 | 0.000171 | 0.000199 | 0.000231
in ethanol | 1.35e-05 | 1.54e-05 | 1.76e-05 | 2.01e-05 | 2.27e-05 | 2.56e-05 | 2.88e-05 | 3.24e-05
in formic acid | 0.00144 | 0.00163 | 0.00183 | 0.00205 | 0.00229 | 0.00254 | 0.00283 | 0.00313
in water | 0.000128 | 0.000156 | 0.00019 | 0.000228 | 0.000274 | 0.000325 | 0.000385 | 0.000456
